{"source": "patent US20220305127A1", "about": "“PYRROLOBENZODIAZEPINE ANTIBODY CONJUGATES” (priority 2017, published 2022)", "origin": "cited, not measured here", "details": "Phase I clinical evaluation", "data": [{"smiles": "C=C1C[C@H]2C=Nc3cc(OCCCOc4cc5c(cc4OC)C(=O)N4CC(=C)C[C@H]4C=N5)c(OC)cc3C(=O)N2C1", "note": "[SJG-136]", "values": [{"measurement": "DNA damage in circulating lymphocytes", "result": "noted at all doses"}, {"measurement": "adverse effects", "result": "vascular leak syndrome, peripheral edema, liver toxicity and fatigue"}, {"measurement": "maximum tolerated dose", "result": 45, "unit": "μg/m^2"}]}]}
